pEC50, pIC50, pKi: −log10 of the molar value.
Experiments:
Progesterone receptor [1] = target: T1, Progesterone receptor (Homo sapiens, UniProt P06401); assay: Agonistic activity against human progesterone receptor in CV-1 cells; format: functional, cell-based
T1 sequence (P06401 whole entry): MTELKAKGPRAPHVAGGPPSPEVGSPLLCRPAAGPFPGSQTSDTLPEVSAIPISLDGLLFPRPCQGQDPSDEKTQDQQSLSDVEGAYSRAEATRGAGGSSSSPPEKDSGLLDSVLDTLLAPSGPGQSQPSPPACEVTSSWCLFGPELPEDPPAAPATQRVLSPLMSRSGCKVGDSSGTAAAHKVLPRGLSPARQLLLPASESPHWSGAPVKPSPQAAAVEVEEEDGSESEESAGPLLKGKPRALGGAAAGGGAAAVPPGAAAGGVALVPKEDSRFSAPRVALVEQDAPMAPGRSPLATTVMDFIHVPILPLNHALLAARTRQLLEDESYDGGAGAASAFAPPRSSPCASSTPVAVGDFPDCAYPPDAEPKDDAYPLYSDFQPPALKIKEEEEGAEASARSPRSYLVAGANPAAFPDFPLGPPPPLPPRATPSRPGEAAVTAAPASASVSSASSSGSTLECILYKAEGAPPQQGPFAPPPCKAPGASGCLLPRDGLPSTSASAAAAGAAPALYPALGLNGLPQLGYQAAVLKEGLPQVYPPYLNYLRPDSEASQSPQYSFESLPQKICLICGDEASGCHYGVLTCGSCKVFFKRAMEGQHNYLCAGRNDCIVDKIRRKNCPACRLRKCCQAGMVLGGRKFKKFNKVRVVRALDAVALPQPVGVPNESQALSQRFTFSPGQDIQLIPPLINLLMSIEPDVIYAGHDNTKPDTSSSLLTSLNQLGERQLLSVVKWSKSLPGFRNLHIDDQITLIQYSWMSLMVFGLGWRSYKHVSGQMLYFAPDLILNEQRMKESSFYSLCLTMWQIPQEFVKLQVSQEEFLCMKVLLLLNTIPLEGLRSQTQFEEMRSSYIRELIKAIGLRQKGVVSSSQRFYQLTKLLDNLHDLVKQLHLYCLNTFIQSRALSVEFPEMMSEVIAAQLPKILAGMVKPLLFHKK

[2] = target: T2, Progesterone receptor (Homo sapiens) (UniProt P06401); assay: Percent agonistic effect towards human progesterone receptor in T47D breast cancer cells; format: functional, cell-based
T2 sequence (whole entry): T1 sequence (P06401 whole entry)

Progesterone receptor [3] = target: T1, Progesterone receptor; assay: Agonistic activity against human progesterone receptor in T47D breast cancer cells; format: functional, cell-based
Progesterone receptor [4] = target: T1, Progesterone receptor; assay: Binding affinity towards human progesterone receptor A isoform using progesterone as radioligand
[5] = target: T2, Progesterone receptor (Homo sapiens); assay: Percent agonistic effect towards human progesterone receptor in CV-1 cells; format: functional, cell-based
Glucocorticoid receptor [6] = target: T3, Glucocorticoid receptor (Homo sapiens, UniProt P04150); assay: Inhibition of Dexamethasone binding to human glucocorticoid receptor expressed in baculovirus […] cells
T3 sequence (P04150 whole entry): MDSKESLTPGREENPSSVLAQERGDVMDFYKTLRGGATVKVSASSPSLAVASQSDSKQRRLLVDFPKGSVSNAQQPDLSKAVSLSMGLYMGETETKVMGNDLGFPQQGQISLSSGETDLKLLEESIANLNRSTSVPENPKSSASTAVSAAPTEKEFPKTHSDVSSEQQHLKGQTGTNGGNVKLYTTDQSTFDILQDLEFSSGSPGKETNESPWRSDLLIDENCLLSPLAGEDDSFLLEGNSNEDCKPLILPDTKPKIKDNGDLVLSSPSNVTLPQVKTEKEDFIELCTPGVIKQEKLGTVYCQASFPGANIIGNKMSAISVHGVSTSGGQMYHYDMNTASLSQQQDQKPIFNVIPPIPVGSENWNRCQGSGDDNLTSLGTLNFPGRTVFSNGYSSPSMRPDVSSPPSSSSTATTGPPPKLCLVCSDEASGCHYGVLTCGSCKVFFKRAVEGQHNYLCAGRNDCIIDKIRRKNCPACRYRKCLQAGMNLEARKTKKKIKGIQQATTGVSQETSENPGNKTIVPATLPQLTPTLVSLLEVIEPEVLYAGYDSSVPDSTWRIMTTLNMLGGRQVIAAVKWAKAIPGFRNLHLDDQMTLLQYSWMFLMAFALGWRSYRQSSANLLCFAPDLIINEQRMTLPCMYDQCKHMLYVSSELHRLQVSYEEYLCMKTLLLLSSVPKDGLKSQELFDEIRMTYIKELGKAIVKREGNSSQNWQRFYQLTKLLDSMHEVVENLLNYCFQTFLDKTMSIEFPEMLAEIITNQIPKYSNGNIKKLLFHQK

Androgen receptor [7] = target: T4, Androgen receptor (Homo sapiens, UniProt P10275)
T4 sequence (P10275 whole entry): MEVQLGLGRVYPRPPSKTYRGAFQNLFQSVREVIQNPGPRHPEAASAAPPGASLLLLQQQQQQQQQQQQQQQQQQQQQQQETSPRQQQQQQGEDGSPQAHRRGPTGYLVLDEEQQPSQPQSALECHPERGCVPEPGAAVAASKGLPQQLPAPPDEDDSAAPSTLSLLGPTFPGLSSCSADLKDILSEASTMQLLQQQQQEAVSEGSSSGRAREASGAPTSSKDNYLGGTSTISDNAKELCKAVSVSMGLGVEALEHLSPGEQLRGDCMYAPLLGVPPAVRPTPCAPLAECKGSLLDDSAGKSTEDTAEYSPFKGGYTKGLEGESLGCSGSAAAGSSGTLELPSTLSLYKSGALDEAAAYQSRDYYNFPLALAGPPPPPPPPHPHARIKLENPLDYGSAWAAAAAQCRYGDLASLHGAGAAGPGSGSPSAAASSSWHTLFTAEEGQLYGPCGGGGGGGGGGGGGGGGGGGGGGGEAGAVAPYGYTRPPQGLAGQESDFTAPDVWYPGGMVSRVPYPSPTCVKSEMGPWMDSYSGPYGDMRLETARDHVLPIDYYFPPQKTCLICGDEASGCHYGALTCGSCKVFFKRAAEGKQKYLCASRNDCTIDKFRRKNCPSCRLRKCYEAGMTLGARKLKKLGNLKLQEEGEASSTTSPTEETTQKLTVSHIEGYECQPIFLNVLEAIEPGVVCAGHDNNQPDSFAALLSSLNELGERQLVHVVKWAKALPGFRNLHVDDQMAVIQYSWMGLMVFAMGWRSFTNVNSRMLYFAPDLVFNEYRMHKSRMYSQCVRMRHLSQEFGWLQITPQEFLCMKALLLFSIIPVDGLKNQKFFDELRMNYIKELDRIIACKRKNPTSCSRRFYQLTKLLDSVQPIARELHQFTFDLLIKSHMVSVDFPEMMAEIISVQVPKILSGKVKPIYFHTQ
Description: Inhibition of human androgen receptor at 10e-12 to 10e-5 M

Glucocorticoid receptor [8] = target: T3, Glucocorticoid receptor
Description: Inhibition of human glucocorticoid receptor at 10e-12 to 10e-5 M

Homo sapiens [9] = species on record: Homo sapiens; assay: Relative potency for human androgen and progesterone receptors
Homo sapiens [10] = species on record: Homo sapiens; assay: Relative potency for human mineralocorticoid and progesterone receptors
Androgen receptor [11] = target: T4, Androgen receptor; assay: biochemical
Description: Inhibition of DHT binding to human androgen receptor expressed in baculovirus SF-12 cells

Homo sapiens [12] = species on record: Homo sapiens; assay: Relative potency for human glucocorticoid and progesterone receptors
Homo sapiens [13] = species on record: Homo sapiens; assay: Relative potency for human estrogen and progesterone receptors

| SMILES | pEC50 (Progesterone receptor [1]) | Efficacy [2] [%] | pEC50 (Progesterone receptor [3]) | pKi (Progesterone receptor [4]) | Efficacy [5] [%] | pKi (Glucocorticoid receptor [6]) | pIC50 (Androgen receptor [7]) | pIC50 (Glucocorticoid receptor [8]) | Ratio (Homo sapiens [9]) | Ratio (Homo sapiens [10]) | pKi (Androgen receptor [11]) | Ratio (Homo sapiens [12]) | Ratio (Homo sapiens [13]) |
| --- | --- | --- | --- | --- | --- | --- | --- | --- | --- | --- | --- | --- | --- |
| CC1=CC(C)(C)Nc2ccc3c(c21)/C(=C/c1ccccc1Br)Oc1ccc(F)cc1-3 | 8.05 | 37 | 7.30 | 7.79 | 147 | – | – | – | – | – | – | – | – |
| CC1=CC(C)(C)Nc2ccc3c(c21)/C(=C/c1cccc(F)c1)Oc1c(F)cccc1-3 | 8.57 | 51 | 7.74 | 8.26 | 170 | – | – | – | – | – | – | – | – |
| CC1=CC(C)(C)Nc2ccc3c(c21)/C(=C/c1ccccc1C=O)Oc1ccc(F)cc1-3 | 7.96 | 72 | 7.32 | 8.59 | 107 | – | – | – | – | – | – | – | – |
| CCCc1ccccc1/C=C1\Oc2ccc(F)cc2-c2ccc3c(c21)C(C)=CC(C)(C)N3 | 8.35 | 46 | 7.23 | 8.80 | 123 | – | – | – | – | – | – | – | – |
| CC1=CC(C)(C)Nc2ccc3c(c21)/C(=C/c1ccccc1C(C)C)Oc1ccc(F)cc1-3 | 8.40 | 43 | 7.27 | 8.72 | 156 | – | – | – | – | – | – | – | – |
| CC1=CC(C)(C)Nc2ccc3c(c21)/C(=C/c1ccccc1OC(F)(F)F)Oc1ccc(F)cc1-3 | 7.96 | 56 | 6.72 | 8.19 | 136 | – | – | – | – | – | – | – | – |
| CC1=CC(C)(C)Nc2ccc3c(c21)/C(=C/c1ccccc1F)Oc1ccc(F)cc1-3 | – | 47 | 7.54 | 9.21 | 190 | – | – | – | – | – | – | – | – |
| CC1=CC(C)(C)Nc2ccc3c(c21)/C(=C/c1ccccc1C)Oc1ccc(F)cc1-3 | 8.44 | 49 | 7.72 | 9.26 | 178 | 6.63 | 6.09 | 6.19 | 228 | > 1000 | < 6.00 | 181 | > 1000 |
| CC1=CC(C)(C)Nc2ccc3c(c21)/C(=C/c1ccccc1)Oc1ccc(F)cc1-3 | – | 55 | 7.55 | 9.21 | 176 | 6.68 | 6.19 | 5.69 | 121 | > 1000 | < 6.00 | 387 | > 1000 |
| CC1=CC(C)(C)Nc2ccc3c(c21)/C(=C/c1ncccc1C)Oc1ccc(F)cc1-3 | 8.35 | 49 | 7.92 | 9.38 | 125 | 6.06 | 6.69 | 6.73 | – | > 1000 | < 6.00 | – | > 1000 |
| CC1=CC(C)(C)Nc2ccc3c(c21)/C(=C/c1ccccc1C)Oc1ccccc1-3 | – | 45 | 7.55 | – | – | – | – | – | – | – | – | – | – |
| CC1=CC(C)(C)Nc2ccc3c(c21)/C(=C/c1ccncc1)Oc1ccc(F)cc1-3 | 8.24 | 49 | 8.31 | 8.82 | 105 | – | – | – | – | – | – | – | – |
| CC1=CC(C)(C)Nc2ccc3c(c21)/C(=C/c1ccccn1)Oc1ccc(F)cc1-3 | 7.82 | 40 | 7.36 | 8.04 | 50 | – | – | – | – | – | – | – | – |
| CC1=CC(C)(C)Nc2ccc3c(c21)/C(=C/c1ccccc1C(F)(F)F)Oc1ccc(F)cc1-3 | 7.85 | 56 | 6.79 | 7.34 | 127 | – | – | – | – | – | – | – | – |
| CC1=CC(C)(C)Nc2ccc3c(c21)/C(=C/c1ccc(F)cc1)Oc1c(F)cccc1-3 | 8.40 | 36 | 8.10 | 9.15 | 175 | – | – | – | – | – | – | – | – |
| CC1=CC(C)(C)Nc2ccc3c(c21)/C(=C/c1ccccc1Cl)Oc1ccc(F)cc1-3 | – | – | – | 7.65 | 146 | – | – | – | – | – | – | – | – |
| CSc1ccccc1/C=C1\Oc2ccc(F)cc2-c2ccc3c(c21)C(C)=CC(C)(C)N3 | 8.21 | 53 | 7.39 | 9.23 | 132 | 6.41 | – | 6.07 | > 1000 | > 1000 | < 6.00 | 139 | > 1000 |
| CC1=CC(C)(C)Nc2ccc3c(c21)/C(=C/c1ccccc1C#N)Oc1ccc(F)cc1-3 | 7.96 | 62 | 7.01 | 7.94 | 78 | – | – | – | – | – | – | – | – |

— ChEMBL document CHEMBL1145087 (J Med Chem, 2003)
